Measured values from patent US20140275234A1, “COMPOSITIONS AND METHODS OF USING CRYSTALLINE FORMS OF WORTMANNIN ANALOGS” (ONCOTHYREON INC., priority 2010, published 2014).

Assay: Solubility Screening Test I and II, HPLC of supernatant
Type: physicochemical
Experimental: For each solvent, a 100 μL glass crimp-top vial was charged with ˜10 mg of PX-866 and sealed. By syringe, 2 parts of the appropriate solvent was added. If PX-866 dissolved completely, no further work was done. If necessary, more solvent was added to obtain a supernatant. The crimped vial was sonicated for 15 minutes and then centrifuged for 30 seconds. 1.0 μL of the supernatant was removed by syringe and added to a sealed HPLC vial containing 500 μL of acetonitrile. The same saturated solution was then heated for 30 minutes to a set point of 50° C., centrifuged again, and a second HPLC vial was prepared with 1.0 μL of the supernatant at 50° C. In the case of toluene, anisole, o-xylene, propyl acetate, 4-methyl-2-pentanone, and 1-pentanol the room temperature supernatant was transferred to a clean vial and cooled down to 0° C., and then −20° C. For each temperature, an HPLC vial was prepared with 1.0 μL of the supernatant. HPLC samples were run using the method described below and the 254 nm AUC was plotted on a calibration curve to obtain solubility data.
The samples that crystallized were cooled to 0° C. and subsequently −20° C. to acquire two additional temperature points. Solubility in the aliphatic solvents (propyl acetate, 4-methyl-2-pentanone, and 1-pentanol) decreased drastically with temperature from RT to −20° C.

In the case of C=CCN(/C=C1/C(=O)O[C@H](COC)[C@@]2(C)C1=C(O)C(=O)C1=C2[C@H](OC(C)=O)C[C@]2(C)C(=O)CC[C@@H]12)CC=C [PX-866, (4S,4aR,5R,6aS,9aR, Z)-1-((diallylamino)methylene)-11-hydroxy-4-(methoxymethyl)-4-a,6a-dimethyl-2,7,10-trioxo-1,2,4,4a,5,6,6a,7,8,9,9a,10-dodecahydroindeno[4,5-h]isochromen-5-yl acetate], the Solubility (1,1,1,3,3,3,hexafluoro-2-propanol, RT) is reported as >500 @ RT mg/mL, the Solubility (1,1,1-trichloroethane, RT) is reported as >500 @ RT mg/mL and the Solubility (1,1,2,2-tetrachloroethane, RT) is reported as >500 @ RT mg/mL. For the same molecule, the Solubility (1,4-dioxane, RT) was >500 @ RT mg/mL, the Solubility (1-butanol, RT) was >500 @ RT mg/mL and the Solubility (1-octanol, RT) was 90.6 mg/mL. It also gave a Solubility (1-pentanol, 0° C.) of 22.8 mg/mL, a Solubility (1-pentanol, RT) of 84.4 mg/mL and a Solubility (1-pentanol, −20° C.) of 2.4 mg/mL. The Solubility (2,2,2-trifluoroethanol, RT) was >500 @ RT mg/mL, the Solubility (2,2,4-trimethylpentane, RT) was 0.37 mg/mL and the Solubility (2-butanone, RT) was >500 @ RT mg/mL. The Solubility (2-ethoxyethanol, RT) was >500 @ RT mg/mL, the Solubility (4-methyl-2-pentanone, 0° C.) was 33.4 mg/mL and the Solubility (4-methyl-2-pentanone, RT) was 38.4 mg/mL. For the same molecule, the Solubility (4-methyl-2-pentanone, −20° C.) was 8.5 mg/mL, the Solubility (N-methyl-2-pyrrolidone, RT) was >500 @ RT mg/mL and the Solubility (acetone, RT) was >500 @ RT mg/mL. For the same molecule, the Solubility (anisole, 0° C., supernatant after crystallization) was 7.0 mg/mL, the Solubility (anisole, RT, supernatant after crystallization) was 9.9 mg/mL and the Solubility (anisole, −20° C., supernatant after crystallization) was 6.2 mg/mL. The Solubility (benzyl alcohol, RT) was 498.0 mg/mL, the Solubility (butyl acetate, RT) was >500 @ RT mg/mL and the Solubility (chlorobenzene, RT) was 15.6 mg/mL. For the same molecule, the Solubility (cumene, RT) was 4.9 mg/mL, the Solubility (di(ethylene glycol), RT) was 374.8 mg/mL and the Solubility (dibutyl ether, RT) was 3.1 mg/mL. For the same molecule, the Solubility (dichloromethane, RT) was >500 @ RT mg/mL, the Solubility (diethyl ether, RT) was 9.5 mg/mL and the Solubility (diethylamine, RT) was >500 @ RT mg/mL. The Solubility (diisopropyl ether, RT) was 4.2 mg/mL, the Solubility (dimethylformamide, RT) was >500 @ RT mg/mL and the Solubility (dimethylsulfoxide, RT) was 252.5 mg/mL. For the same molecule, the Solubility (ethanol, RT) was >500 @ RT mg/mL, the Solubility (ethanolamine, RT) was >500 @ RT mg/mL and the “Comments: PX-866 in supernatant” value (ethanolamine, RT, solution turned dark orange) was “no PX-866 detected in”. The Solubility (ethyl acetate, RT) was >500 @ RT mg/mL, the Solubility (ethyl formate, RT) was >500 @ RT mg/mL and the Solubility (ethylene glycol, RT) was 135.9 mg/mL. The Solubility (glycerol, RT) was 12.6 mg/mL, the Solubility (heptanes, RT) was 0.88 mg/mL and the Solubility (hexanes, RT) was 0.31 mg/mL. For the same molecule, the Solubility (isopentanol, RT) was 228.2 mg/mL, the Solubility (isopropyl acetate, RT) was >500 @ RT mg/mL and the Solubility (isopropyl alcohol, RT) was >500 @ RT mg/mL. The Solubility (m-xylene, RT) was 4.5 mg/mL, the Solubility (methanol, RT) was >500 @ RT mg/mL and the Solubility (methyl acetate, RT) was >500 @ RT mg/mL. For the same molecule, the Solubility (methyl t-butyl ether, RT) was 41.0 mg/mL, the Solubility (methyltetrahydrofuran, RT) was >500 @ RT mg/mL and the Solubility (nitromethane, RT) was >500 @ RT mg/mL. The Solubility (o-xylene, 0° C., supernatant after crystallization) was 7.3 mg/mL, the Solubility (o-xylene, RT, supernatant after crystallization) was 5.5 mg/mL and the Solubility (o-xylene, −20° C., supernatant after crystallization) was 5.7 mg/mL. It also gave a Solubility (p-xylene, RT) of 1.0 mg/mL, a Solubility (pentane, RT) of 0.79 mg/mL and a Solubility (perfluorohexane, RT) of 0.28 mg/mL. It also gave a Solubility (propyl acetate, 0° C.) of 54.8 mg/mL, a Solubility (propyl acetate, RT) of 84.6 mg/mL and a Solubility (propyl acetate, −20° C.) of 18.6 mg/mL. The Solubility (sec-butyl ether, RT) was 1.3 mg/mL, the Solubility (t-Butanol, 30° C.) was 340.0 mg/mL and the Solubility (tetrahydrofuran, RT) was >500 @ RT mg/mL. It also gave a Solubility (toluene, 0° C., supernatant after crystallization) of 2.7 mg/mL, a Solubility (toluene, RT, supernatant after crystallization) of 5.2 mg/mL and a Solubility (toluene, −20° C., supernatant after crystallization) of 2.6 mg/mL. For the same molecule, the Solubility (water, RT) was 3.5 mg/mL and the “Comments: decomposition observed by HPLC” value (water, RT, solubility sample) was “Slightly soluble, significant decomposition”.
